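96-well plates; 48 h exposure; 5 concentrations. Endpoints by linear interpolation between flanking doses. Not reached: highest tested concentration assigned. GI50: concentration for 50% inhibition of growth. Definition used: TGI = concentration required for complete inhibition of growth.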
Legend:
Assay in all cases: NCI-60 cell line screen, 48 h
[1] = tested on: DLD-1 colon
[2] = tested on: SW-620 colon
[3] = tested on: SNB-78 CNS
[4] = tested on: OVCAR-5 ovarian
[5] = tested on: M14 melanoma
[6] = tested on: COLO 205 colon
[7] = tested on: OVCAR-3 ovarian
[8] = tested on: CCRF-CEM leukemia
[9] = tested on: HL-60(TB) leukemia
[10] = tested on: HCT-116 colon

`CCc1cccc(C)c1N1C(=O)C(=O)C(c2nc3ccccc3o2)/C(=N/NC(=S)NN)C1=O` (centres undefined) gave a TGI [1] of over 100 µM, a TGI [2] of over 100 µM and a TGI [3] of over 100 µM. For the same compound, the TGI [4] was over 100 µM, the TGI [5] was over 100 µM and the TGI [6] was over 100 µM. The TGI [7] was over 100 µM, the TGI [8] was over 100 µM and the TGI [9] was over 100 µM. For the same compound, the TGI [10] was over 100 µM.

With `CC12CC/C(=N/NC(N)=O)C3C1CCCC32` the TGI [1] was over 100 µM, the TGI [2] was over 100 µM and the TGI [5] was over 100 µM. The TGI [6] was over 100 µM, the TGI [7] was over 100 µM and the TGI [8] was over 100 µM. It also gave a TGI [9] of over 100 µM and a TGI [10] of over 100 µM.

`CCC(C)C(=O)O[C@H]1C(=O)O[C@@H]2C[C@H]3C(C)=CC(=O)[C@@H](O)[C@]3(C)[C@H]3[C@@H](O)[C@H](O)[C@@]4(C)OC[C@]32[C@@H]14` (some centres undefined) showed a TGI [1] of 0.317 µM, a TGI [2] of 0.28 µM and a TGI [3] of 0.394 µM. It also gave a TGI [4] of 0.0942 µM, a TGI [5] of under 0.0216 µM and a TGI [6] of 0.278 µM. It also gave a TGI [7] of 0.0906 µM, a TGI [9] of under 0.01 µM and a TGI [10] of under 0.01 µM.

`CN(C)CCCOc1ccc(/C=C2/CCC/C(=C/c3ccc(OCCCN(C)C)cc3)C2=O)cc1` gave a TGI [1] of 3.21 µM, a TGI [2] of 3.73 µM and a TGI [3] of 9.06 µM. The TGI [4] was 0.644 µM, the TGI [5] was 6.07 µM and the TGI [6] was 3.2 µM. The TGI [7] was 5.56 µM, the TGI [8] was 3.84 µM and the TGI [9] was 3.65 µM. The TGI [10] was 2.76 µM.

Work on `CCC[CH2][Sn]1([CH2]CCC)[O]C(=O)CN=C(C)c2ccccc2[O]1` yielded a GI50 [1] of 1.94 µM, a TGI [1] of over 100 µM and a GI50 [2] of 0.413 µM. It also gave a TGI [2] of 1.59 µM, a GI50 [3] of 0.312 µM and a TGI [3] of 1.7 µM. It also gave a GI50 [4] of 1.81 µM, a TGI [4] of 3.24 µM and a GI50 [5] of 1.37 µM. It also gave a TGI [5] of 2.67 µM, a GI50 [6] of 0.569 µM and a TGI [6] of 1.9 µM. The GI50 [7] was 1.4 µM, the TGI [7] was 2.73 µM and the GI50 [10] was 1.55 µM. The TGI [10] was 2.92 µM.

`CC12CCCC(C#N)(C1)OC2=O` (centres undefined) showed a TGI [1] of over 100 µM, a TGI [2] of over 100 µM and a TGI [3] of over 100 µM. The TGI [4] was over 100 µM, the TGI [5] was over 100 µM and the TGI [7] was over 100 µM. The TGI [8] was over 100 µM, the TGI [9] was over 100 µM and the TGI [10] was over 100 µM.

For `CC1NC(C(=O)O)Cc2cc(O)c(O)cc21` (centres undefined), the TGI [2] was over 100 µM, the TGI [4] was over 100 µM and the TGI [5] was over 100 µM. The TGI [6] was over 100 µM, the TGI [7] was over 100 µM and the TGI [8] was over 100 µM. It also gave a TGI [9] of over 100 µM and a TGI [10] of over 100 µM.

`COc1ccc2nc3cc(Cl)ccc3c(NCCNCC(O)CO)c2c1` (centres undefined) showed a GI50 [2] of 0.61 µM, a TGI [2] of 11.3 µM and a GI50 [4] of 2.16 µM. It also gave a TGI [4] of 11.2 µM, a GI50 [5] of 2.79 µM and a TGI [5] of 10.9 µM. The GI50 [6] was 0.622 µM, the TGI [6] was 2.41 µM and the GI50 [7] was 1.81 µM. The TGI [7] was 8.55 µM, the GI50 [8] was 1.69 µM and the TGI [8] was 13.8 µM. It also gave a GI50 [9] of 2.83 µM, a TGI [9] of 7 µM and a GI50 [10] of 0.391 µM. For the same compound, the TGI [10] was 2.83 µM.

In the case of `O=C(CN(Cc1ccccc1)Cc1ccccc1)N1CCc2c([nH]c3ccccc23)C1c1cccnc1` (centres undefined), the TGI [1] is reported as over 100 µM, the TGI [2] is reported as over 100 µM and the TGI [3] is reported as over 100 µM. For the same compound, the TGI [4] was 34.7 µM, the TGI [5] was 14.2 µM and the TGI [7] was 34 µM. For the same compound, the TGI [8] was 41.4 µM, the TGI [9] was 4.17 µM and the TGI [10] was 16.2 µM.

With `O=CC1CCC=CC1NC(=O)OCc1ccccc1` (centres undefined) the TGI [1] was over 100 µM, the TGI [2] was over 100 µM and the TGI [3] was over 100 µM. For the same compound, the TGI [4] was over 100 µM, the TGI [5] was over 100 µM and the TGI [6] was over 100 µM. The TGI [8] was over 100 µM, the TGI [9] was 46.5 µM and the TGI [10] was over 100 µM.

Work on `N#CC(C(=O)/C(=N/NC(=O)c1ccccc1O)C(C#N)c1ccc(Br)cc1)c1ccc(Br)cc1` (centres undefined) yielded a TGI [1] of 25.6 µM, a TGI [2] of 18.1 µM and a TGI [3] of 25.5 µM. The TGI [4] was 29.1 µM, the TGI [5] was 29 µM and the TGI [6] was 30.1 µM. The TGI [7] was 26.4 µM, the TGI [8] was 76.4 µM and the TGI [10] was 26.6 µM.

`Nc1c(C(=O)c2ccc(C#CCN3CCOCC3)cc2)cnn1-c1ccc(F)cc1` gave a GI50 [2] of over 25 µM, a TGI [2] of over 25 µM and a GI50 [4] of over 25 µM. The TGI [4] was over 25 µM, the GI50 [5] was over 25 µM and the TGI [5] was over 25 µM. It also gave a GI50 [6] of over 25 µM, a TGI [6] of over 25 µM and a GI50 [7] of over 25 µM. The TGI [7] was over 25 µM, the GI50 [8] was over 25 µM and the TGI [8] was over 25 µM. It also gave a GI50 [9] of over 25 µM, a TGI [9] of over 25 µM and a GI50 [10] of over 25 µM. For the same compound, the TGI [10] was over 25 µM.

Compound `C[C@]12CCCN1CC1=NNC(=O)c3cc(F)cc4[nH]c2c1c34` has a GI50 [2] of 16.7 µM, a TGI [2] of over 100 µM and a GI50 [4] of 20.2 µM. For the same compound, the TGI [4] was over 100 µM, the GI50 [5] was 18.5 µM and the TGI [5] was 59.6 µM. For the same compound, the GI50 [6] was 14.6 µM, the TGI [6] was 40.6 µM and the GI50 [7] was 17.8 µM. It also gave a TGI [7] of over 100 µM, a GI50 [8] of 22.5 µM and a TGI [8] of 81 µM. The GI50 [9] was 25 µM, the TGI [9] was 66.9 µM and the GI50 [10] was 14.2 µM. The TGI [10] was over 100 µM.

In the case of `Cc1ccc(/C=C(/C#N)n2nnc3ncccc32)cc1`, the GI50 [2] is reported as 1.2 µM, the TGI [2] is reported as 12 µM and the GI50 [4] is reported as 2.49 µM. It also gave a TGI [4] of 10.1 µM, a GI50 [5] of 2.89 µM and a TGI [5] of 17.7 µM. It also gave a GI50 [6] of 2.25 µM, a TGI [6] of 10.5 µM and a GI50 [7] of 0.801 µM. It also gave a TGI [7] of 3.74 µM, a GI50 [8] of 3.08 µM and a TGI [8] of over 100 µM. For the same compound, the GI50 [9] was 2.99 µM, the TGI [9] was 9.92 µM and the GI50 [10] was 2.2 µM. The TGI [10] was 11.1 µM.

In the case of `CS(=O)(=O)c1ccc2c(c1)C(=O)c1c-2n(CCCBr)c(=O)c2cc([N+](=O)[O-])ccc12`, the GI50 [2] is reported as 0.683 µM, the TGI [2] is reported as over 100 µM and the GI50 [4] is reported as over 100 µM. It also gave a TGI [4] of over 100 µM, a GI50 [5] of 7.11 µM and a TGI [5] of over 100 µM. The GI50 [6] was over 100 µM, the TGI [6] was over 100 µM and the GI50 [7] was 28.8 µM. It also gave a TGI [7] of over 100 µM, a GI50 [8] of 0.758 µM and a TGI [8] of 30.7 µM. The GI50 [9] was 3.37 µM, the TGI [9] was over 100 µM and the GI50 [10] was 7.44 µM. The TGI [10] was over 100 µM.

For `Cc1cc(Cl)ccc1NC(=O)CC1SC(=NC(=O)c2ccccc2Cl)NC1=O` (centres undefined), the TGI [1] was 34 µM, the TGI [2] was 32.3 µM and the TGI [3] was 50.9 µM. The TGI [4] was 84 µM, the TGI [5] was 32 µM and the TGI [7] was 36.3 µM. The TGI [8] was 8.66 µM, the TGI [9] was 4.72 µM and the TGI [10] was 32 µM.

Compound `COC(=O)CC1C2(C)C3=C(C)C(c4ccoc4)CC3OC2C2OC(=O)C3(C)C=CC(=O)C1(C)C23` (centres undefined) has a TGI [2] of 4.39 µM, a TGI [4] of 5.44 µM and a TGI [5] of 3.25 µM. It also gave a TGI [6] of 3.58 µM, a TGI [7] of 7.56 µM and a TGI [8] of 2.17 µM. For the same compound, the TGI [9] was 2.76 µM and the TGI [10] was 2.28 µM.

`O=C(Nc1ccccc1)n1cc(-c2ccccn2)c(N2CCOCC2)n1` showed a TGI [1] of over 100 µM, a TGI [2] of over 100 µM and a TGI [3] of over 100 µM. It also gave a TGI [5] of over 100 µM, a TGI [6] of over 100 µM and a TGI [7] of 29.5 µM. For the same compound, the TGI [8] was over 100 µM, the TGI [9] was 6.93 µM and the TGI [10] was over 100 µM.

Compound `CCNC(=O)Oc1ccc(/C(=C(\C)c2ccc(Cl)cc2)c2ccc(OCCN(CC)CC)cc2)cc1` has a GI50 [2] of 2.02 µM, a TGI [2] of 4.23 µM and a GI50 [4] of 10.3 µM. For the same compound, the TGI [4] was 23.1 µM, the GI50 [5] was 1.97 µM and the TGI [5] was 3.97 µM. For the same compound, the GI50 [6] was 1.94 µM, the TGI [6] was 3.94 µM and the GI50 [7] was 4.56 µM. For the same compound, the TGI [7] was 16.7 µM, the GI50 [8] was 3.38 µM and the TGI [8] was 12.2 µM. The GI50 [9] was 1.79 µM, the TGI [9] was 4.37 µM and the GI50 [10] was 2.04 µM. It also gave a TGI [10] of 4.86 µM.
